The text below walks through data of US6972296B2, “Carboxylic acid derivatives that inhibit the binding of integrins to their receptors” (Encysive Pharmaceuticals Inc., priority 1999, dated 2005).

In this experiment the target is T1, α4β1 integrin (Homo sapiens, UniProt P05556+P13612).
T1 construct: endogenous in cells; host or cells: Ramos cells
The experiment in a line: Adhesion of calcein-labeled Ramos cells to CS1 (fibronectin) peptide conjugated ovalbumin. In kind it is cell-based. Conditions: Table 4; Ramos cell adhesion to CS1 conjugated ovalbumin, 30 minutes at 37° C. The method, then:
A procedure in which a 26-amino acid peptide containing the CS1 sequence of fibronectin with an N-terminal Cys ([…]) was coupled to maleimide activated ovalbumin was used to determine the efficacy of the compounds synthesized. Bovine serum albumin (BSA) and CS1 conjugated ovalbumin were coated onto 96-well polystyrene plates at 0.5 μg/ml in TBS (50 mM TRIS, pH 7.5; 150 mM NaCl) at 4° C. for 16 hours. The plates were washed three times with TBS and blocked with TBS containing 3% BSA at room temperature for 4 hours. Blocked plates were washed three times in binding buffer (TBS; 1 mM MgCl2; 1 mM CaCl2; 1 mM MnCl2) prior to assay. Ramos cells fluorescently labeled with calcein AM were resuspended in binding buffer (10^7 cells/ml) and diluted 1:2 with same buffer with or without compound. 100 μM of compound was added. The cells were added immediately to the wells (2.5×10^5 cells/well) and incubated for 30 minutes at 37° C. Following three washes with binding buffer, adherent cells were lysed and quantitated using a fluorometer. IC50 is defined as the dose required to give 50% inhibition, measured in μM for Tables 2 and 4. The lower the IC50 value and the greater the percentage of inhibition, the more efficient the compound is at prevention of cell adhesion.

SMILES strings stand for the structures.

T1 sequence (P13612 34-1032): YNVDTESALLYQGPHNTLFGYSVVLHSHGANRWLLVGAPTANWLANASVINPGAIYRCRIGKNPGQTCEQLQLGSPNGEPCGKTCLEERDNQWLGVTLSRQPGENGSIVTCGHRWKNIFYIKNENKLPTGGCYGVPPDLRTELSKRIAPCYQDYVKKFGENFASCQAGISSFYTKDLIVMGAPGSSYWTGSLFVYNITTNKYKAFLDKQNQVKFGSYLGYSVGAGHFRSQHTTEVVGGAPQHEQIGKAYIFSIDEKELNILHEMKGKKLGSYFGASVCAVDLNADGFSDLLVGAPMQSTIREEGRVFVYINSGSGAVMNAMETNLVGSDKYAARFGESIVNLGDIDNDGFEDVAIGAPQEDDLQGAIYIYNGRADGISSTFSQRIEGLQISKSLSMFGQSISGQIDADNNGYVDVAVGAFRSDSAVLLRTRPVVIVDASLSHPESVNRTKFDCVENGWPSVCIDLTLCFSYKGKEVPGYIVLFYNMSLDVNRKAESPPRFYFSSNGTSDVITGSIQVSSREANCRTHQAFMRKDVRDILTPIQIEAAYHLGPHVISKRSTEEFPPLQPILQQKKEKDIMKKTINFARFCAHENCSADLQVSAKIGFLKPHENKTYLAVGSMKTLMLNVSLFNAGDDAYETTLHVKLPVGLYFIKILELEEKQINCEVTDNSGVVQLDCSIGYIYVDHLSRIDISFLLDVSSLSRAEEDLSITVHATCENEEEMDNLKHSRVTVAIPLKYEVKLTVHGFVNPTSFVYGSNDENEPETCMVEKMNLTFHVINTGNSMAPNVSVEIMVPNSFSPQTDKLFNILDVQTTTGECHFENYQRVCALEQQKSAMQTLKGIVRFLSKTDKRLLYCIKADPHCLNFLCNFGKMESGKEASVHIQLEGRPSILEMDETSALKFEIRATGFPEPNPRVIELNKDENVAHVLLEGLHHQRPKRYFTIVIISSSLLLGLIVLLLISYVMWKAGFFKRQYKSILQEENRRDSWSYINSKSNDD
T1 sequence (P05556 21-798): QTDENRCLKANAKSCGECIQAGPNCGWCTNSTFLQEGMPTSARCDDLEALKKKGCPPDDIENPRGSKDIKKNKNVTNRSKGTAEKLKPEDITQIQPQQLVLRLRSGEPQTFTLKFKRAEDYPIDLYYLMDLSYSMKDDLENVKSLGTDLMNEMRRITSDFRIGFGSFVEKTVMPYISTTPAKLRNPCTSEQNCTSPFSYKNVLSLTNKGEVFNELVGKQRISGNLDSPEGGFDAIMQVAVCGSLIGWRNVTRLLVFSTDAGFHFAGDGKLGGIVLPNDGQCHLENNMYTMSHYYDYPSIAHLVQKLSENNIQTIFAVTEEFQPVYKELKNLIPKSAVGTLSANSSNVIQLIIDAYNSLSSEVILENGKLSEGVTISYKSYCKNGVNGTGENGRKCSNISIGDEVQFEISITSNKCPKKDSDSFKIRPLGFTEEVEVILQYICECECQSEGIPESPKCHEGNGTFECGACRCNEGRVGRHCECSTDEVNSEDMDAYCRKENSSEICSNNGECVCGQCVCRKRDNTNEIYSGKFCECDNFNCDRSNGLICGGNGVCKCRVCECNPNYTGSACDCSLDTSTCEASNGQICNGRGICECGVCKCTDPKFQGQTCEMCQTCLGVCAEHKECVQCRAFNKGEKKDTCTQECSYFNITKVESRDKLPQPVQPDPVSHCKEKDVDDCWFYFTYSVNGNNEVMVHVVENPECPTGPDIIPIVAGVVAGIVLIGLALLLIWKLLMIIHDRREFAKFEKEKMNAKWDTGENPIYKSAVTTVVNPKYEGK

As to `O=C(O)CC(NC(=O)Nc1cccn(Cc2ccccc2Cl)c1=O)c1cccc(Cl)c1` (stereo not shown), the IC50 was 1000 nM.

As to `O=C(O)CC(NC(=O)Nc1cccn(Cc2ccccc2Cl)c1=O)c1ccc(Cl)cc1` (stereo not shown), the IC50 is 400 nM.

In the case of `O=C(O)CC(NC(=O)Nc1cccn(Cc2ccccc2Cl)c1=O)c1ccc(Cl)c(Cl)c1` (stereo not shown), the IC50 is 1000 nM.

In the case of `CC(C)C[C@H](CC(=O)O)NC(=O)Nc1c(N2CCOCC2)ccn(Cc2ccccc2Cl)c1=O`, the 50% inhibitory concentration (IC50) is 100 nM.

`O=C(O)C[C@H](NC(=O)Nc1cccc(NCc2cccs2)c1)c1ccc2c(c1)OCO2`: the IC50 was 5000 nM.

Consider `O=C(O)C[C@H](NC(=O)Nc1cccn(Cc2cccc(Cl)c2)c1=O)c1ccc2c(c1)OCO2`, for which the half-inhibitory concentration (IC50) is 800 nM.

Take `Cc1cccc(Cn2cccc(NC(=O)N[C@@H](CC(=O)O)c3ccc4c(c3)OCO4)c2=O)c1`: the IC50 was 1500 nM.

As to `COc1ccc(Cn2cccc(NC(=O)N[C@@H](CC(=O)O)c3ccc4c(c3)OCO4)c2=O)cc1`, the IC50 is 3000 nM.

On to `O=C(O)C[C@H](NC(=O)Nc1cccn(Cc2ccc(Cl)cc2)c1=O)c1ccc2c(c1)OCO2`, for which the IC50 is 3000 nM.

With `O=C(O)C[C@H](NC(=O)Nc1cccn(Cc2cccc(C(F)(F)F)c2)c1=O)c1ccc2c(c1)OCO2`, the IC50 is 800 nM.

Take `O=C(O)C[C@H](NC(=O)NC1CCCCN(Cc2ccccc2)C1=O)c1ccc2c(c1)OCO2` (stereo partly shown): the half-inhibitory concentration (IC50) was 15 nM.

As to `O=C(O)C[C@H](NC(=O)Nc1cccc(Oc2ccccc2)c1)c1ccc2c(c1)OCO2`, the IC50 was 50000 nM.

As for `COc1cccc(OC)c1[C@H](CC(=O)O)NC(=O)Nc1cccn(Cc2ccccc2Cl)c1=O`, the IC50 is 6000 nM.

Turning to `COc1cc(OC)cc([C@H](CC(=O)O)NC(=O)Nc2cccn(Cc3cccs3)c2=O)c1`, the IC50 was 700 nM.

Consider `COc1ccc([C@H](CC(=O)O)NC(=O)Nc2cccn(Cc3cccs3)c2=O)cc1`, for which the concentration for half-maximal inhibition (IC50) is 800 nM.

For the compound `O=C(O)C[C@H](NC(=O)Nc1cccn(Cc2cccs2)c1=O)c1ccc(F)cc1`, the IC50 was 1600 nM.

As to `Cc1ccc([C@H](CC(=O)O)NC(=O)Nc2cccn(Cc3csc(C)n3)c2=O)cc1`, the concentration for half-maximal inhibition (IC50) is 1000 nM.

Take `Cc1ccc([C@H](CC(=O)O)NC(=O)Nc2cccn(Cc3ccccc3[N+](=O)[O-])c2=O)cc1`: the half-maximal inhibitory concentration (IC50) was 1000 nM.

As to `Cc1ccc([C@H](CC(=O)O)NC(=O)Nc2cccn(Cc3ccc([N+](=O)[O-])cc3)c2=O)cc1`, the IC50 is 1000 nM.

Turning to `Cc1ccc([C@H](CC(=O)O)NC(=O)Nc2cccn(Cc3c(C)cc(C)cc3C)c2=O)cc1`, the half-maximal inhibitory concentration (IC50) is 2500 nM.

For the compound `Cc1ccccc1[C@H](CC(=O)O)NC(=O)Nc1cccn(Cc2ccccc2Cl)c1=O`, the IC50 was 3000 nM.

In the case of `Cc1ccc([C@H](CC(=O)O)NC(=O)Nc2cccn(Cc3nc4ccccc4o3)c2=O)cc1`, the concentration for half-maximal inhibition (IC50) was > 10000 nM.

Take `Cc1ccc([C@H](CC(=O)O)NC(=O)Nc2cccn(CC(=O)Nc3ccccc3O)c2=O)cc1`: the half-inhibitory concentration (IC50) was > 10000 nM.

With `Cc1ccc([C@H](CC(=O)O)NC(=O)Nc2cccn(Cc3c(N)cccc3Cl)c2=O)cc1`, the IC50 is 2000 nM.

With `Cc1ccc([C@H](CC(=O)O)NC(=O)Nc2cccn(Cc3ccc(Cl)cc3Br)c2=O)cc1`, the concentration for half-maximal inhibition (IC50) was 1000 nM.

`Cc1ccc([C@H](CC(=O)O)NC(=O)Nc2cccn(Cc3cc(NS(C)(=O)=O)ccc3Br)c2=O)cc1`: the IC50 is 250 nM.

`Cc1ccc([C@H](CC(=O)O)NC(=O)Nc2cccn(Cc3cc(F)ccc3Br)c2=O)cc1`: the IC50 was 500 nM.

On to `Cc1ccc([C@H](CC(=O)O)NC(=O)Nc2cccn(Cc3cc([N+](=O)[O-])ccc3Br)c2=O)cc1`, for which the IC50 was 2000 nM.

On to `COc1ccc([C@H](CC(=O)O)NC(=O)Nc2cccn(Cc3ccccc3Br)c2=O)cc1C`, for which the IC50 was 200 nM.

Regarding `Cc1ccc([C@H](CC(=O)O)NC(=O)Nc2cccn(Cc3ccc(F)cc3Cl)c2=O)cc1`, the concentration for half-maximal inhibition (IC50) was 350 nM.

As for `Cc1ccc([C@H](CC(=O)O)NC(=O)Nc2cccn(Cc3c(F)cccc3Cl)c2=O)cc1`, the IC50 is 100 nM.

Take `Cc1ccc([C@H](CC(=O)O)NC(=O)Nc2cccn(Cc3c(Cl)cccc3[N+](=O)[O-])c2=O)cc1`: the concentration for half-maximal inhibition (IC50) is 4000 nM.

In the case of `Cc1ccc([C@H](CC(=O)O)NC(=O)Nc2cnc(C)n(Cc3ccccc3Cl)c2=O)cc1`, the half-maximal inhibitory concentration (IC50) is 90 nM.

Consider `O=C(O)C[C@H](NC(=O)Nc1cccn(Cc2ccccc2Cl)c1=O)c1ccc2c(c1)CCC2`, for which the IC50 was 300 nM.

Turning to `O=C(O)C[C@H](NC(=O)Nc1cccn(Cc2ccccc2Cl)c1=O)c1c(O)cccc1O`, the IC50 was 3000 nM.

In the case of `CCCS(=O)(=O)Nc1ccn(Cc2ccccc2Cl)c(=O)c1NC(=O)N[C@@H](CC(=O)O)c1ccc(C)cc1`, the IC50 is 30 nM.

On to `O=C(O)C[C@H](NC(=O)Nc1c(O)ccn(Cc2ccccc2Cl)c1=O)c1ccc(OC(F)(F)F)cc1`, for which the concentration for half-maximal inhibition (IC50) is 15 nM.

With `COc1ccc([C@H](CC(=O)O)NC(=O)Nc2c(O)ccn(Cc3ccccc3Cl)c2=O)c(C)c1C`, the half-inhibitory concentration (IC50) is 35 nM.

For the compound `CCOc1ccc([C@H](CC(=O)O)NC(=O)Nc2c(O)ccn(Cc3ccccc3Cl)c2=O)cc1`, the IC50 is 20 nM.

Consider `CCc1ccc([C@H](CC(=O)O)NC(=O)Nc2c(O)ccn(Cc3ccccc3Cl)c2=O)cc1`, for which the half-inhibitory concentration (IC50) is 25 nM.

As for `Cc1ccc([C@H](CC(=O)O)NC(=O)Nc2cn(Cc3ccccc3Cl)ccc2=O)cc1`, the IC50 was 100 nM.

For `Cc1ccc([C@H](CC(=O)O)NC(=O)Nc2cccn(Cc3ccccc3C#N)c2=O)cc1`, the concentration for half-maximal inhibition (IC50) was 100 nM.

On to `Cc1ccc([C@H](CC(=O)O)NC(=O)Nc2cccn(Cc3ccc(C(F)(F)F)cc3F)c2=O)cc1`, for which the IC50 is 3000 nM.

`Cc1ccc([C@H](CC(=O)O)NC(=O)Nc2cccn(Cc3ccc(F)cc3F)c2=O)cc1`: the 50% inhibitory concentration (IC50) was 1300 nM.

Take `Cc1ccc([C@H](CC(=O)O)NC(=O)Nc2cccn(Cc3cc(F)ccc3F)c2=O)cc1`: the half-inhibitory concentration (IC50) was 800 nM.

On to `Cc1ccc([C@H](CC(=O)O)NC(=O)Nc2cccn(Cc3cc(C)ccc3C)c2=O)cc1`, for which the half-inhibitory concentration (IC50) was 150 nM.

As to `Cc1ccc([C@H](CC(=O)O)NC(=O)Nc2cccn(Cc3c(F)cccc3F)c2=O)cc1`, the half-inhibitory concentration (IC50) is 300 nM.

As for `Cc1ccc([C@H](CC(=O)O)NC(=O)Nc2cccn(Cc3cccc(O)c3)c2=O)cc1`, the IC50 is 200 nM.

In the case of `Cc1ccc([C@H](CC(=O)O)NC(=O)Nc2cccn(Cc3c(C)noc3C)c2=O)cc1`, the IC50 was 3000 nM.

Regarding `Cc1ccc([C@H](CC(=O)O)NC(=O)Nc2cccn(Cc3ccc(C(C)(C)C)cc3)c2=O)cc1`, the IC50 is 6000 nM.

In the case of `Cc1ccc([C@H](CC(=O)O)NC(=O)Nc2cccn(Cc3ccc(Cl)cc3)c2=O)cc1`, the IC50 was 2000 nM.

For the compound `CC(=O)Nc1ccc(Br)c(Cn2cccc(NC(=O)N[C@@H](CC(=O)O)c3ccc(C)cc3)c2=O)c1`, the IC50 was 200 nM.

On to `Cc1ccc([C@H](CC(=O)O)NC(=O)Nc2cccn(Cc3cc(N)ccc3Br)c2=O)cc1`, for which the IC50 was 80 nM.

Take `Cc1ccc([C@H](CC(=O)O)NC(=O)Nc2cccn(Cc3cc(Cl)ccc3F)c2=O)cc1`: the IC50 was 2500 nM.

As to `Cc1ccc([C@H](CC(=O)O)NC(=O)Nc2cccn(Cc3ccc(Cl)s3)c2=O)cc1`, the IC50 is 1300 nM.

On to `O=C(O)C[C@H](NC(=O)Nc1cccn(Cc2cccs2)c1=O)c1cccc(C(F)(F)F)c1`, for which the half-inhibitory concentration (IC50) was 2500 nM.

As to `Cc1ccc([C@H](CC(=O)O)NC(=O)Nc2c(O)ccn(Cc3ccccc3)c2=O)cc1`, the half-inhibitory concentration (IC50) is 30 nM.

With `Cc1ccc([C@H](CC(=O)O)NC(=O)Nc2c(O)cc(C)n(Cc3ccccc3)c2=O)cc1`, the concentration for half-maximal inhibition (IC50) was 35 nM.

The IC50 is the point on the concentration scale where inhibition reaches its midpoint.
